Data as given in patent US12391697B2, “Condensed bi-heterocycles as inhibiting agents for Bruton's tyrosine kinase” (BIOGEN MA INC., priority 2019, dated 2025).
Where a name gives a salt, the structure may show the parent alone. Read-outs that look alike come from different tables or passages of the source.

Legend:
BTK = BTK (Homo sapiens (Human), UniProt Q06187); test: In Vitro BTK Kinase Assay: Btk-PolyGAT-LS Assay; format: biochemical; settings: active BTK enzyme 0.25 nM, ATP 10 μM, polyGAT 100 nM, 30 minutes
Method in brief: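 Recombinant BTK (0.25 nM) phosphorylating 100 nM polyGAT at 10 μM ATP in Tris-HCl pH 7.5 buffer with MgCl2, DTT, Triton X-100 and casein, 30 min, then EDTA stop.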

[1] = tested on: CD69 expression on CD19+ B cells in whole blood; test: In Vitro Whole Blood CD69 Assay; format: cell-based, Human
Protocol: In Vitro Whole Blood CD69 Assay
Human heparinized venous blood from health donors was aliquoted into 96-well plate and “spiked” with serial dilutions of formula I compounds in DMSO or with DMSO without drug. The final concentration of DMSO in all wells was 0.1%. The plate was incubated at 37° C. for 30 min. Drug-containing samples were stimulated with 0.1 μg/mL mouse anti-human IgD-dextran (1A62) or 20 μg/mL polyclonal rabbit F(ab′)2 anti-human IgD. Phosphate-buffered saline (PBS) was added to the negative control unstimulated sample and the plates were incubated overnight (18 to 22 hours) at 37° C. Cells were stained with fluorochrome-conjugated anti-CD19 and anti-CD69 antibodies. Lyse/fix solution was used to remove red blood cells by hypotonic lysis and to fix the remaining cells, which were then analyzed by flow cytometry. CD19+ B cells were gated and analyzed for CD69 expression. The percentage of B cells expressing CD69 was plotted versus the log 10 of the concentration of the drug and the best-fit curves (variable Hill slope) were generated to obtain the IC50 value.

[2] = Homo sapiens, B-cell, human heparinized whole blood, anti-human IgD stimulation, percentage of CD19+ B cells expressing CD69, read-out: IC50

Chain of BTK (Q06187 whole entry): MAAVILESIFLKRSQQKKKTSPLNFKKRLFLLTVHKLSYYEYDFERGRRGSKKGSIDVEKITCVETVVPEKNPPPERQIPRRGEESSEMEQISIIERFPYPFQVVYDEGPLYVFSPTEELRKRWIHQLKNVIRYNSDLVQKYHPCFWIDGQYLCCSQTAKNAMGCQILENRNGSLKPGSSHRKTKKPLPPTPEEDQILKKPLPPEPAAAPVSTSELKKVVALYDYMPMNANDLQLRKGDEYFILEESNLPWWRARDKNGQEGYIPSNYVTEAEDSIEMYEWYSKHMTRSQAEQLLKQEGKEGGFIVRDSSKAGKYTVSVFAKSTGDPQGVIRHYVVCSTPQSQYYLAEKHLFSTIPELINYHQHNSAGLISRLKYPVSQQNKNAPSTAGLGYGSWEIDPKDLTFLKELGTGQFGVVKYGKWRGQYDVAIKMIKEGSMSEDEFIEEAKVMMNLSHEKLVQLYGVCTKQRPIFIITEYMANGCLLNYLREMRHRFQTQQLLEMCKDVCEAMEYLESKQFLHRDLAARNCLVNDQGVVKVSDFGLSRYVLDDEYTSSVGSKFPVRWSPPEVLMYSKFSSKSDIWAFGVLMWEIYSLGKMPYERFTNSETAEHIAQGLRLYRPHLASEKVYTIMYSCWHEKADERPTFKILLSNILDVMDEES

Row | SMILES | IC50 (BTK) | IC50 [1, 2] | IC50 ([1]; Homo sapiens, B-cell) | IC50 ([1]; human heparinized whole blood, anti-human IgD stimulation, percentage of CD19+ B cells expressing CD69, read-out: IC50)
1 | Cc1cc(-c2ncnn3cc(N4CCN(C)CC4)cc23)ccc1CNC(=O)c1noc(C(C)(C)C)n1 [Example 4, 5-(tert-butyl)-N-(2-methyl-4-(6-(4-methylpiperazin-1-yl)pyrrolo[2,1-f][1,2,4]triazin-4-yl)benzyl)-1,2,4-oxadiazole-3-carboxamide trifluoroacetate] | ≤ 1 nM | < 100 nM | – | –
2 | Cc1c(CNC(=O)c2nc(C(C)(C)C)no2)ccc(-c2ncnn3cc(N4CCN(C)[C@@H](C)C4)cc23)c1F (single isomer, unassigned) [Example 26] | ≤ 1 nM | 100 to 1000 nM | – | –
3 | Cc1cc(-c2ncnn3cc(N4CCOCC4)cc23)ccc1CNC(=O)c1noc(C(C)(C)C)n1 [Example 5, 5-(tert-butyl)-N-(2-methyl-4-(6-morpholinopyrrolo[2,1-f][1,2,4]triazin-4-yl)benzyl)-1,2,4-oxadiazole-3-carboxamide trifluoroacetate] | ≤ 1 nM | 100 to 1000 nM | – | –
4 | Cc1cc(-c2ncnn3cc(N4C[C@@H](C)O[C@@H](C)C4)cc23)ccc1CNC(=O)c1noc(C(C)(C)C)n1 [Example 39, 5-(tert-butyl)-N-(4-(6-((2,6-syn)-2,6-dimethylmorpholino)pyrrolo[2,1-f][1,2,4]triazin-4-yl)-2-methylbenzyl)-1,2,4-oxadiazole-3-carboxamide] | ≤ 1 nM | 100 to 1000 nM | – | –
5 | Cc1cc(-c2ncnn3cc(-c4ccncc4)cc23)ccc1CNC(=O)c1noc(C(C)(C)C)n1 [Example 38, 5-(tert-butyl)-N-(2-methyl-4-(6-(pyridin-4-yl)pyrrolo[2,1-f][1,2,4]triazin-4-yl)benzyl)-1,2,4-oxadiazole-3-carboxamide] | ≤ 1 nM | 100 to 1000 nM | – | –
6 | CC(C)(C)c1nc(C(=O)NCc2ccc(-c3ncnn4cc(N5CCOCC5)cc34)cc2C2CC2)no1 [Example 37, 5-(tert-butyl)-N-(2-cyclopropyl-4-(6-morpholinopyrrolo[2,1-f][1,2,4]triazin-4-yl)benzyl)-1,2,4-oxadiazole-3-carboxamide] | ≤ 1 nM | > 1000 nM | – | –
7 | CC(C)(C)c1nc(C(=O)NCc2ccc(-c3ncnn4cc(N5CCOCC5)cc34)cc2C(F)(F)F)no1 [Example 34, 5-(tert-butyl)-N-(4-(6-morpholinopyrrolo[2,1-f][1,2,4]triazin-4-yl)-2-(trifluoromethyl)benzyl)-1,2,4-oxadiazole-3-carboxamide hydrochloride] | ≤ 1 nM | 100 to 1000 nM | – | –
8 | COCCOc1cc2c(-c3ccc(CNC(=O)c4noc(C(C)(C)C)n4)c(C)c3)ncnn2c1 [Example 58, 5-(tert-butyl)-N-(4-(6-(2-methoxyethoxy)pyrrolo[2,1-f][1,2,4]triazin-4-yl)-2-methylbenzyl)-1,2,4-oxadiazole-3-carboxamide] | ≤ 1 nM | < 100 nM | – | –
9 | Cc1cc(-c2ncnn3cc(N4C[C@H](C)O[C@@H](C)C4)cc23)ccc1CNC(=O)c1noc(C(C)(C)C)n1 (single isomer, unassigned) [Example 44, hydrochloride] | ≤ 1 nM | 100 to 1000 nM | – | –
10 | Cc1c(CNC(=O)c2nc(C(C)(C)C)no2)ccc(-c2ncnn3cc(N4CCOCC4)cc23)c1F [Example 2, 3-(tert-butyl)-N-(3-fluoro-2-methyl-4-(6-morpholinopyrrolo[2,1-f][1,2,4]triazin-4-yl)benzyl)-1,2,4-oxadiazole-5-carboxamide] | ≤ 1 nM | 100 to 1000 nM | – | –
11 | Cc1cc(-c2ncnn3cc(N4CCN(C)[C@@H](C)C4)cc23)ccc1CNC(=O)c1nc(C(C)(C)C)no1 (single isomer, unassigned) [Example 28] | ≤ 1 nM | 100 to 1000 nM | – | –
12 | COCCn1cc(-c2cc3c(-c4ccc(CNC(=O)c5noc(C(C)(C)C)n5)c(C)c4)ncnn3c2)cn1 [Example 7, 5-(tert-butyl)-N-(4-(6-(1-(2-methoxyethyl)-1H-pyrazol-4-yl)pyrrolo[2,1-f][1,2,4]triazin-4-yl)-2-methylbenzyl)-1,2,4-oxadiazole-3-carboxamide] | ≤ 1 nM | < 100 nM | – | –
13 | CO[C@@H]1CCN(c2cc3c(-c4ccc(CNC(=O)c5nc(C(C)(C)C)no5)c(C)c4)ncnn3c2)C1 (single isomer, unassigned) [Example 24] | ≤ 1 nM | 100 to 1000 nM | – | –
14 | Cc1cc(-c2ncnn3cc(N4CCC(F)(F)C4)cc23)ccc1CNC(=O)c1noc(C(C)(C)C)n1 [Example 12, 5-(tert-butyl)-N-(4-(6-(3,3-difluoropyrrolidin-1-yl)pyrrolo[2,1-f][1,2,4]triazin-4-yl)-2-methylbenzyl)-1,2,4-oxadiazole-3-carboxamide trifluoroacetate] | ≤ 1 nM | 100 to 1000 nM | – | –
15 | Cc1cc(-c2ncnn3cc(-c4ccn(C)n4)cc23)ccc1CNC(=O)c1noc(C(C)(C)C)n1 [Example 9, 5-(tert-butyl)-N-(2-methyl-4-(6-(1-methyl-1H-pyrazol-3-yl)pyrrolo[2,1-f][1,2,4]triazin-4-yl)benzyl)-1,2,4-oxadiazole-3-carboxamide trifluoroacetate] | ≤ 1 nM | 100 to 1000 nM | – | –
16 | Cc1cc(-c2ncnn3cc(-c4cnn(CC(F)F)c4)cc23)ccc1CNC(=O)c1noc(C(C)(C)C)n1 [Example 10, 5-(tert-butyl)-N-(4-(6-(1-(2,2-difluoroethyl)-1H-pyrazol-4-yl)pyrrolo[2,1-f][1,2,4]triazin-4-yl)-2-methylbenzyl)-1,2,4-oxadiazole-3-carboxamide trifluoroacetate] | ≤ 1 nM | 100 to 1000 nM | – | –
17 | CC(C)(C)c1noc(C(=O)NCc2ccc(-c3ncnn4cc(N5CCOCC5)cc34)c(F)c2Cl)n1 [Example 14, 3-(tert-butyl)-N-(2-chloro-3-fluoro-4-(6-morpholinopyrrolo[2,1-f][1,2,4]triazin-4-yl)benzyl)-1,2,4-oxadiazole-5-carboxamide trifluoroacetate] | ≤ 1 nM | – | 100 to 1000 nM | –
18 | CC(C)(C)c1nc(C(=O)N[C@@H]2CCCCc3c2ccc(-c2ncnn4cccc24)c3F)no1 [Example 56, (R)-5-(tert-butyl)-N-(1-fluoro-2-(pyrrolo[2,1-f][1,2,4]triazin-4-yl)-6,7,8,9-tetrahydro-5H-benzo[7]annulen-5-yl)-1,2,4-oxadiazole-3-carboxamide hydrochloride] | ≤ 1 nM | 100 to 1000 nM | – | –
19 | COc1cc(-c2ncnn3cc(-c4cnn(C)c4)cc23)ccc1CNC(=O)c1noc(C(C)(C)C)n1 [Example 35, 5-(tert-butyl)-N-(2-methoxy-4-(6-(1-methyl-1H-pyrazol-4-yl)pyrrolo[2,1-f][1,2,4]triazin-4-yl)benzyl)-1,2,4-oxadiazole-3-carboxamide hydrochloride] | ≤ 1 nM | 100 to 1000 nM | – | –
20 | CC(C)(C)c1nc(C(=O)NCc2ccc(-c3ncnn4cc(N5CCOCC5)cc34)cc2Cl)no1 [Example 15, 5-(tert-butyl)-N-(2-chloro-4-(6-morpholinopyrrolo[2,1-f][1,2,4]triazin-4-yl)benzyl)-1,2,4-oxadiazole-3-carboxamide trifluoroacetate] | ≤ 1 nM | 100 to 1000 nM | – | –
21 | Cc1cc(-c2ncnn3cc(-c4cnn(C)c4)cc23)ccc1CNC(=O)c1noc(C2(C)CC2)n1 [Example 40, N-(2-methyl-4-(6-(1-methyl-1H-pyrazol-4-yl)pyrrolo[2,1-f][1,2,4]triazin-4-yl)benzyl)-5-(1-methylcyclopropyl)-1,2,4-oxadiazole-3-carboxamide] | ≤ 1 nM | 100 to 1000 nM | – | –
22 | Cc1cc(-c2ncnn3cc(C4=CCOCC4)cc23)ccc1CNC(=O)c1noc(C(C)(C)C)n1 [Example 6, 5-(tert-butyl)-N-(4-(6-(3,6-dihydro-2H-pyran-4-yl)pyrrolo[2,1-f][1,2,4]triazin-4-yl)-2-methylbenzyl)-1,2,4-oxadiazole-3-carboxamide] | ≤ 1 nM | 100 to 1000 nM | – | < 100 nM
23 | Cc1cc(-c2ncnn3cc(N4CCO[C@H](C)C4)cc23)ccc1CNC(=O)c1noc(C(C)(C)C)n1 (single isomer, unassigned) [Example 30] | ≤ 1 nM | 100 to 1000 nM | – | –
24 | Cn1cc(-c2cc3c(-c4ccc(CNC(=O)c5noc(C(C)(C)C)n5)c(C(F)F)c4F)ncnn3c2)cn1 [Example 36, 5-(tert-butyl)-N-(2-(difluoromethyl)-3-fluoro-4-(6-(1-methyl-1H-pyrazol-4-yl)pyrrolo[2,1-f][1,2,4]triazin-4-yl)benzyl)-1,2,4-oxadiazole-3-carboxamide hydrochloride] | ≤ 1 nM | 100 to 1000 nM | – | –
25 | CC(C)(C)c1nc(C(=O)NCc2cc(F)c(-c3ncnn4cc(N5CCOCC5)cc34)cc2Cl)no1 [Example 1, 5-tert-butyl-N-[[2-chloro-5-fluoro-4-(6-morpholinopyrrolo[2,1-f][1,2,4]triazin-4-yl)phenyl]methyl]-1,2,4-oxadiazole-3-carboxamide] | ≤ 1 nM | > 1000 nM | – | –
26 | Cc1cc(-c2ncnn3cc(N4CCN(C5COC5)CC4)cc23)ccc1CNC(=O)c1noc(C(C)(C)C)n1 [Example 32, 5-(tert-butyl)-N-(2-methyl-4-(6-(4-(oxetan-3-yl)piperazin-1-yl)pyrrolo[2,1-f][1,2,4]triazin-4-yl)benzyl)-1,2,4-oxadiazole-3-carboxamide trifluoroacetate] | ≤ 1 nM | 100 to 1000 nM | – | –
